According to paper PMC4341838 (Biochemistry, 2015):

Assay: Circular dichroism in POPC liposomes
Type: physicochemical
Settings: 1:250 peptide:lipid

- Conformation by CD in POPC liposomes, in words: β-sheet-like conformation
Sequence: SSLSLLSLSWLSLSLLSLS [SLscr2]
